{"source": "patent US20230033021A1", "about": "“TREATMENT OF A DISEASE OF THE GASTROINTESTINAL TRACT WITH AN INTEGRIN INHIBITOR” (Progenity, Inc., priority 2018, published 2023)", "key": {"IL-6": {"system": "IL-6", "conditions": "low dose PO group (15 mg/kg), by 12 h post-dose"}, "[1]": {"test": "Pharmacokinetic study of oral vs intra-cecal administration of tacrolimus: blood, rectal content, GI tissue and luminal content (Example 13)", "parameters": "species or system Yorkshire-Cross farm swine", "conditions": "female, Yorkshire-Cross, swine, in vivo, 0.09 mg/kg", "from_the_text": "No further randomization procedure was employed."}, "GM-CSF": {"system": "GM-CSF", "test": "GM-CSF in plasma and colon tissue by ELISA, DSS-induced colitis mouse model", "assay_type": "in vivo, mice", "conditions": "between IC and PO treatment groups, plasma or colon tissue (data not shown)"}}, "data": [{"compound": "C[C@@H]1CCN(C(=O)CC#N)C[C@@H]1N(C)c1ncnc2[nH]ccc12.O=C(O)CC(O)(CC(=O)O)C(=O)O", "note": "[tofacitinib citrate]", "values": [{"measurement": "IL-6 expression in colon tissue", "setting": "IL-6", "value": "Recovery from IL-6 inhibition"}]}, {"compound": "C=CC[C@@H]1/C=C(\\C)C[C@H](C)C[C@H](OC)[C@H]2O[C@@](O)(C(=O)C(=O)N3CCCC[C@H]3C(=O)O[C@H](/C(C)=C/[C@@H]3CC[C@@H](O)[C@H](OC)C3)[C@H](C)[C@@H](O)CC1=O)[C@H](C)C[C@@H]2OC", "note": "[tacrolimus]", "values": [{"measurement": "Tissue(mean) (ng/g)/Trough(12 hr)(ng/mL) Ratio", "setting": "[1]", "value": 0}]}, {"compound": "C[C@@H]1CCN(C(=O)CC#N)C[C@@H]1N(C)c1ncnc2[nH]ccc12", "note": "[tofacitinib]", "values": [{"measurement": "GM-CSF levels", "setting": "GM-CSF", "value": "nor was there a significant difference"}]}]}
